# Assay results published in patent US4007177A, “Cephalosporin derivatives” (Sankyo Company Limited, priority 1973, dated 1977).
# Read-outs that look alike come from different tables or passages of the source.
# Columns and labels:
# Format in all cases: cell-based
# Sh. flexneri 2a = experiment: Minimum inhibitory concentration, Sh. flexneri 2a; conditions: Shigella flexneri
# Procedure: (§1) Minimum inhibitory concentrations (MIC) were determined for the compounds of this invention.
# Salm. ent. Gaertner = experiment: Minimum inhibitory concentration, Salm. ent. Gaertner; conditions: read-out: Minimum Inhibitory Concentration
# Procedure: as §1
# Prot. vulgaris = experiment: Minimum inhibitory concentration, Prot. vulgaris; conditions: Proteus vulgaris
# Procedure: as §1
# E. coli NIHJ = experiment: Minimum inhibitory concentration, E. coli NIHJ; conditions: Escherichia coli
# Procedure: as §1
# Klebsiella 806 = experiment: Minimum inhibitory concentration, Klebsiella 806
# Procedure: as §1
# E. coli 609 (R) = experiment: Minimum inhibitory concentration, E. coli 609 (R); conditions: Escherichia coli, read-out: Minimum Inhibitory Concentration
# Procedure: as §1
# S.aureus R = experiment: Minimum inhibitory concentration, S.aureus R; conditions: Staphylococcus aureus
# Procedure: as §1
# Klebsiella 846 = experiment: Minimum inhibitory concentration, Klebsiella 846
# Procedure: as §1
# S.aureus 209p = experiment: Minimum inhibitory concentration, S.aureus 209p; conditions: Staphylococcus aureus
# Procedure: as §1
Compound,MIC (Sh. flexneri 2a),MIC (Salm. ent. Gaertner; Salm. ent. Gaertner),MIC (Prot. vulgaris),MIC (E. coli NIHJ),MIC (Klebsiella 806),MIC (E. coli 609 (R); E. coli 609 (R)),MIC (S.aureus R),MIC (Klebsiella 846),MIC (S.aureus 209p),MIC (Salm. ent. Gaertner),MIC (E. coli 609 (R))
COC1(NC(=O)CSCN=[N+]=[N-])C(=O)N2C(C(=O)O)=C(CSc3nnnn3C)CSC21 (stereo not drawn) [N3 CH2 S],1.5 µg/mL,0.8 µg/mL,1.5 µg/mL,3.1 µg/mL,3.1 µg/mL,3.1 µg/mL,0.4 µg/mL,> 200 µg/mL,0.4 µg/mL,–,–
"COC1(NC(=O)Cc2ccccc2)C(=O)N2C(C(=O)O)=C(COC(N)=O)CSC21 (stereo not drawn) [C6 H5, reference compound]",12.5 µg/mL,–,25 µg/mL,25 µg/mL,25 µg/mL,25 µg/mL,3.1 µg/mL,> 400 µg/mL,0.8 µg/mL,12.5 µg/mL,–
"COC1(NC(=O)CS(=O)(=O)CCC#N)C(=O)N2C(C(=O)O)=C(CSc3nnnn3C)CSC21 (stereo not drawn) [NCCH2 CH2 SO2, 7β-(2-Cyanoethylsulfonyl)acetamido-7α-methoxy-3-(1-methyl-1H-tetrazol-5-yl)thiomethyl-3-cephem-4-carboxylic acid]",3.1 µg/mL,0.8 µg/mL,6.2 µg/mL,1.5 µg/mL,1.5 µg/mL,1.5 µg/mL,3.1 µg/mL,200 µg/mL,1.5 µg/mL,–,–
COC1(NC(=O)C[n+]2cc([O-])on2)C(=O)N2C(C(=O)O)=C(CSc3nnnn3C)CSC21 (stereo not drawn),1.5 µg/mL,0.8 µg/mL,6.2 µg/mL,1.5 µg/mL,1.5 µg/mL,1.5 µg/mL,1.5 µg/mL,> 200 µg/mL,0.8 µg/mL,–,–
COC1(NC(=O)CSc2ccon2)C(=O)N2C(C(=O)O)=C(CSc3nnnn3C)CSC21 (stereo not drawn),3.1 µg/mL,0.8 µg/mL,3.1 µg/mL,3.1 µg/mL,6.2 µg/mL,3.1 µg/mL,0.8 µg/mL,> 400 µg/mL,0.2 µg/mL,–,–
"CO[C@@]1(NC(=O)CSCN=[N+]=[N-])C(=O)N2C(C(=O)O)=C(COC(N)=O)CS[C@@H]21 [N3 CH2 S, OCONH2, 7β-Azidomethylthioacetamido-3-carbamoyloxymethyl-7α-methoxy-3-cephem-4-carboxylic acid]",3.1 µg/mL,1.5 µg/mL,3.1 µg/mL,3.1 µg/mL,3.1 µg/mL,6.2 µg/mL,1.5 µg/mL,> 400 µg/mL,0.2 µg/mL,–,–
COC1(NC(=O)CSc2ccon2)C(=O)N2C(C(=O)O)=C(COC(C)=O)CSC21 (stereo not drawn) [3-Acetoxymethyl-7β-(3-isoxazolylthioacetamido)-7α-methoxy-3-cephem-4-carboxylic acid],6.2 µg/mL,–,–,–,–,–,0.8 µg/mL,> 400 µg/mL,0.2 µg/mL,–,–
COC1(NC(=O)COc2ccon2)C(=O)N2C(C(=O)O)=C(CSc3nnnn3C)CSC21 (stereo not drawn),3.1 µg/mL,1.5 µg/mL,6.2 µg/mL,3.1 µg/mL,3.1 µg/mL,3.1 µg/mL,0.8 µg/mL,> 400 µg/mL,0.2 µg/mL,–,–
"COC1(NC(=O)CS(C)(=O)=O)C(=O)N2C(C(=O)O)=C(CSc3nnnn3C)CSC21 (stereo not drawn) [CH3 SO2, 7α-Methoxy-7β-methylsulfonylacetamido-3-(1-methyl-1H-tetrazol-5-yl)thiomethyl-3-cephem-4-carboxylic acid]",1.5 µg/mL,0.4 µg/mL,–,–,0.8 µg/mL,–,–,400 µg/mL,0.8 µg/mL,–,–
"C#CCSCC(=O)NC1(OC)C(=O)N2C(C(=O)O)=C(CSc3nnnn3C)CSC21 (stereo not drawn) [HCCCH2 S, 3-(1-Methyl-1H-tetrazol-5-yl)thiomethyl-7β-propargylthioacetamido-7α-methoxy-3-cephem-4-carboxylic acid]",3.1 µg/mL,0.8 µg/mL,–,–,–,–,0.8 µg/mL,400 µg/mL,0.2 µg/mL,–,–
"CCS(=O)(=O)CC(=O)N[C@]1(OC)C(=O)N2C(C(=O)O)=C(CSc3nnnn3C)CS[C@@H]21 [C2 H 5 SO2, 7β-Ethylsulfonylacetamido-7α-methoxy-3-(1-methyl-1H-tetrazol-5-yl)thiomethyl-3-cephem-4-carboxylic acid]",1.5 µg/mL,0.8 µg/mL,6.2 µg/mL,1.5 µg/mL,1.5 µg/mL,1.5 µg/mL,1.5 µg/mL,> 400 µg/mL,1.5 µg/mL,–,–
"COC1(NC(=O)CSCCO)C(=O)N2C(C(=O)O)=C(CSc3nnnn3C)CSC21 (stereo not drawn) [HOCH2 CH2 S, 7β-(2-Hydroxyethyl)thioacetamido-7α-methoxy-3-(1-methyl-1H-tetrazol-5-yl)thiomethyl-3-cephem-4-carboxylic acid]",3.1 µg/mL,1.5 µg/mL,6.2 µg/mL,1.5 µg/mL,1.5 µg/mL,1.5 µg/mL,1.5 µg/mL,400 µg/mL,0.8 µg/mL,–,–
"CC(=O)OCC1=C(C(=O)O)N2C(=O)[C@@H](NC(=O)Cc3cccs3)[C@H]2SC1 [Cephalothin, reference compound]",12.5 µg/mL,6.2 µg/mL,6.2 µg/mL,6.2 µg/mL,6.2 µg/mL,–,–,> 200 µg/mL,–,–,25 µg/mL
